Measurements: paper PMC7413254 (Nature Communications, 2020)
Where two headings read alike, the source gives them in different places.

Assays:
PfCRT^Ecu1110 [1] = biological target: T1, PfCRT^Ecu1110 (Plasmodium falciparum, UniProt Q9N623, A220S/I356L/K76T/N326D); test: [3H]CQ uptake into Xenopus oocytes, cis-inhibition by unlabelled solute; type: cell-based
Procedure, shortened: (§1)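 Each treatment used ten oocytes, repeated in at least four experiments on different days with oocytes from different frogs. Conditions: ND96 pH 5.5, 27.5 °C, 1.5 h; read-out by scintillation counting.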

PfCRT^Dd2 [2] = biological target: T2, PfCRT^Dd2 (Plasmodium falciparum, UniProt Q9N623, A220S/I356T/K76T/M74I/N326S/N75E/Q271E/R371I); test: as above; type: cell-based
T2 sequence (Q9N623 whole entry A220S/I356T/K76T/M74I/N326S/N75E/Q271E/R371I): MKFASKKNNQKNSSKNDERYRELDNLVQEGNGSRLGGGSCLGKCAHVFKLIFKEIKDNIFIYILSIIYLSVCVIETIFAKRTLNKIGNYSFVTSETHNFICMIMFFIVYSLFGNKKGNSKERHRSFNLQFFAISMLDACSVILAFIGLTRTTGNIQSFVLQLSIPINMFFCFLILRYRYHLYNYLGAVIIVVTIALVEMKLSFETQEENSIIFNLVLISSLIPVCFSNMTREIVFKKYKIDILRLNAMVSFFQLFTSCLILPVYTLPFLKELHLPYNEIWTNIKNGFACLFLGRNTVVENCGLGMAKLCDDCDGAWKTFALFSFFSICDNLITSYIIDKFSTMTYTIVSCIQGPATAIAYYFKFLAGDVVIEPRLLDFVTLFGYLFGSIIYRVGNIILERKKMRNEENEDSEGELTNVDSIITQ
Procedure, shortened: as §1

PfCRT [3] = test: Potential co-substrates tested for influx of VF-6 via PfCRT into the oocyte; type: cell-based, Plasmodium falciparum; set-up: key: X: Compounds that have been tested as potential co-substrates but are not required for influx of VF-6 via PfCRT into the oocyte
PfCRT^Ecu1110 [4] = biological target: T1, PfCRT^Ecu1110; test: cell-based; type: cell-based; conditions: […]
Procedure, shortened: (§2)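 Oocytes (ten per treatment, ≥4 independent frogs/days) were preloaded by injecting VF-6 in 25 nL ND96 at pH 5.0, 5.5, 6.0 or 7.0, or Na^+-free choline buffer, then uptake run 1.5 h, 27.5 °C, ND96 pH 5.5 by default. Internal concentrations assumed ~400 nL oocyte volume.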

PfNT1 = biological target: T3, PfNT1 (Plasmodium falciparum, UniProt Q8IDM6); test: cell-based; type: cell-based; conditions: for activity at 5000 µM: total [3H]CQ transport
T3 construct: expressed in transfected cells; host or cells: Xenopus laevis oocytes (stage V-VI), cRNA-injected
T3 sequence (Q8IDM6 whole entry): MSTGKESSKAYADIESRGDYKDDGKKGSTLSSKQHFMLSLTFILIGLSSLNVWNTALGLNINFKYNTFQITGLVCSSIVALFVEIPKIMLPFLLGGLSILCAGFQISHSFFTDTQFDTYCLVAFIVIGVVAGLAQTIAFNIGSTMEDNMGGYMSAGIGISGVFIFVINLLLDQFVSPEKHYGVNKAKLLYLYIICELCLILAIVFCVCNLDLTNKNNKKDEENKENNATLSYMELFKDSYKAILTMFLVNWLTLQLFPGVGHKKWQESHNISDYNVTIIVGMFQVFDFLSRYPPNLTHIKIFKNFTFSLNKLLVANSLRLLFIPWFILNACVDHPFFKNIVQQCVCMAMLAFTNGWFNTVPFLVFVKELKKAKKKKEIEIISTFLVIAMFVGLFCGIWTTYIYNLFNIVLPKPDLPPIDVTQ
Procedure, shortened: as §2

PfCRT^3D7 [5] = biological target: T4, PfCRT^3D7 (Plasmodium falciparum, UniProt Q8IBZ9); test: cell-based; type: cell-based
T4 sequence (Q8IBZ9 59-398): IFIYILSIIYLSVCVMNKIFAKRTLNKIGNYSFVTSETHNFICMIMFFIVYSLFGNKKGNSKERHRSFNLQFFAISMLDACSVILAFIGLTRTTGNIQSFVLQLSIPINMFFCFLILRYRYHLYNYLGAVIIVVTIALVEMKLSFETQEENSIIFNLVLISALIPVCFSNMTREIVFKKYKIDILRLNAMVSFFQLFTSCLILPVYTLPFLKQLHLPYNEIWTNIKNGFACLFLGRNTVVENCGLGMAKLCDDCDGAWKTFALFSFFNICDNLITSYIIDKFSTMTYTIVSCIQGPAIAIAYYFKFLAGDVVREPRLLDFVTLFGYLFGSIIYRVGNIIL
Procedure, shortened: as §2

PfCRT^Dd2 [6] = biological target: T2, PfCRT^Dd2; test: cell-based; type: cell-based; conditions: […]; for activity at 45000 µM: [test solute]i = 45 mM (30 mM for some solutes due to solubility)
Procedure, shortened: as §2

PfCRT^3D7 [7] = biological target: T4, PfCRT^3D7; test: cell-based; type: cell-based; conditions: total [3H]CQ transport; for inhibition at 500 µM: [test solute] = 0.5 mM; for inhibition at 1000 µM: [test solute] = 1 mM; for inhibition at 2000 µM: [test solute] = 2 mM
Procedure, shortened: as §1

non-expressing oocytes [8] = test: cells; type: cell-based, Xenopus laevis; conditions: Xenopus laevis, total [3H]CQ transport; for inhibition at 500 µM: [test solute] = 0.5 mM; for inhibition at 1000 µM: [test solute] = 1 mM; for inhibition at 2000 µM: [test solute] = 2 mM
Procedure, shortened: as §1

non-expressing oocytes [9] = type: cell-based, Xenopus laevis; conditions: total [3H]CQ transport; for Uptake of [3H]CQ (% non-expressing oocyte control), trans-stimulation: non-expressing oocytes, normalised to the oocyte type control; for Uptake of [3H]CQ (% PfCRTDd2 control), trans-stimulation, non-expressing oocytes: mean ± SEM, SEM
Procedure, shortened: as §2

PfCRT [10] = test: Test of solutes as potential co-substrates for influx of VF-6 via PfCRT into the oocyte; type: cell-based, Plasmodium falciparum; set-up: key: X: Compounds that have been tested as potential co-substrates but are not required for influx of VF-6 via PfCRT into the oocyte; conditions: X = tested
[11] = read-out: PfCRT-mediated [3H]CQ transport, cis-inhibition (% PfCRTEcu1110 control)
[12] = read-out: Uptake of [3H]CQ (% PfCRTDd2 control), cis-inhibition, PfCRTEcu1110, SEM
[13] = read-out: Uptake of [3H]CQ (% PfCRTEcu1110 control), cis-inhibition
[14] = read-out: [3H]CQ transport (% PfCRTEcu1110 control), cis-inhibition, PfCRTEcu1110, SEM
[15] = read-out: PfCRT-mediated [3H]CQ transport, cis-inhibition (% PfCRTDd2 control)
[16] = read-out: Uptake of [3H]CQ (% PfCRTDd2 control), cis-inhibition, PfCRTDd2, SEM
[17] = PfCRT3D7 oocytes, normalised to the oocyte type control, read-out: Uptake of [3H]CQ (% PfCRT3D7 control), cis-inhibition
[18] = mean ± SEM, SEM, read-out: Uptake of [3H]CQ (% PfCRTDd2 control), cis-inhibition, PfCRT3D7
[19] = Oocyte, mean ± SEM, SEM, read-out: Uptake of [3H]CQ (% PfCRTDd2 control), cis-inhibition, non-expressing oocytes
[20] = non-expressing oocytes, normalised to the oocyte type control, read-out: Uptake of [3H]CQ (% non-expressing oocyte control), cis-inhibition

T1 sequence (Q9N623 whole entry A220S/I356L/K76T/N326D): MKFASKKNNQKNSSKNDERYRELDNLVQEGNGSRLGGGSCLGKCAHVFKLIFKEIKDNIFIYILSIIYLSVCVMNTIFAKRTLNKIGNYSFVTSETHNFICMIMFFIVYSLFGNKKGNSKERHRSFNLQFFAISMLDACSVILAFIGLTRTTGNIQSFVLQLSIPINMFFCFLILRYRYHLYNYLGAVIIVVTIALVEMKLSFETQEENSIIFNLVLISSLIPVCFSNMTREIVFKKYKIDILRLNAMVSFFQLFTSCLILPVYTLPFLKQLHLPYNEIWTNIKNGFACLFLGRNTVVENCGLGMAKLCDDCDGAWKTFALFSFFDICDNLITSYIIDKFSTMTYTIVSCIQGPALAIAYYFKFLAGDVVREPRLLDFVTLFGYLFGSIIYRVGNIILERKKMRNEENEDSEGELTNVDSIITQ

`C[C@@H](O)[C@H](N)C(=O)O` [L-threonine] showed an inhibition at 500 µM (PfCRT^Ecu1110 [1]; [11]) of 94 ± 1.1%, an inhibition at 1000 µM (PfCRT^Ecu1110 [1]; [11]) of 95 ± 1.3% and an inhibition at 2000 µM (PfCRT^Ecu1110 [1]; [11]) of 94 ± 3.7%. It also gave an inhibition at 500 µM (PfCRT^Ecu1110 [1]; [12]) of 31 ± 1.1%, an inhibition at 1000 µM (PfCRT^Ecu1110 [1]; [12]) of 32 ± 1.9% and an inhibition at 2000 µM (PfCRT^Ecu1110 [1]; [12]) of 31 ± 1.3%. For the same compound, the inhibition at 500 µM (PfCRT^Ecu1110 [1]; [13]) was 96 ± 3.1%, the inhibition at 1000 µM (PfCRT^Ecu1110 [1]; [13]) was 98 ± 2.4% and the inhibition at 2000 µM (PfCRT^Ecu1110 [1]; [13]) was 96 ± 2.2%. It also gave an inhibition at 500 µM (PfCRT^Ecu1110 [1]; [14]) of 28 ± 0.6%, an inhibition at 1000 µM (PfCRT^Ecu1110 [1]; [14]) of 29 ± 0.8% and an inhibition at 2000 µM (PfCRT^Ecu1110 [1]; [14]) of 28 ± 1.5%. It also gave an inhibition at 500 µM (PfCRT^Dd2 [2]; [15]) of 95 ± 3.6%, an inhibition at 2000 µM (PfCRT^Dd2 [2]; [15]) of 92 ± 5.6% and an inhibition at 500 µM (PfCRT^Dd2 [2]; [16]) of 97 ± 2.5%. The inhibition at 1000 µM (PfCRT^Dd2 [2]; [16]) was 96 ± 3.6%, the inhibition at 2000 µM (PfCRT^Dd2 [2]; [16]) was 94 ± 3.2% and the “Tested as potential co-substrate but not required for influx of VF-6 via PfCRT into the oocyte” value (PfCRT [3]) was “X”. For the same compound, the activity at 5000 µM (PfCRT^Ecu1110 [4]; pH 5.5, read-out: PfCRT-mediated [3H]CQ transport, trans-stimulation (% PfCRTEcu1110 control), [test solute]i = 5 mM (intracellular), PfCRTEcu1110 oocytes, normalised to oocyte type control) was 99 ± 3.4%, the activity at 5000 µM (PfCRT^Ecu1110 [4]; pH 5.5, read-out: Uptake of [3H]CQ (% PfCRTEcu1110 control), trans-stimulation, PfCRTEcu1110 oocytes, [test solute]i = 5 mM, total [3H]CQ transport, normalised to the oocyte type control) was 101 ± 2.5% and the activity at 45000 µM (PfCRT^Ecu1110 [4]; pH 5.5, read-out: Uptake of [3H]CQ (% PfCRTEcu1110 control), trans-stimulation, PfCRTEcu1110 oocytes, [test solute]i = 45 mM (30 mM for some solutes due to solubility), total [3H]CQ transport, normalised to the oocyte type control) was 99 ± 2%. The activity at 5000 µM (PfCRT^Ecu1110 [4]; read-out: Uptake of [3H]CQ (% PfCRTDd2 control), trans-stimulation, PfCRTEcu1110, total [3H]CQ transport, [test solute]i = 5 mM (intracellular), mean ± SEM, SEM) was 36 ± 1.9%, the activity at 45000 µM (PfCRT^Ecu1110 [4]; read-out: Uptake of [3H]CQ (% PfCRTDd2 control), trans-stimulation, PfCRTEcu1110, total [3H]CQ transport, [test solute]i = 45 mM (intracellular; 30 mM for some solutes due to solubility), mean ± SEM, SEM) was 35 ± 1.3% and the activity at 5000 µM (PfNT1; PfNT1 oocytes, [test solute]i = 5 mM, normalised to the oocyte type control, read-out: Uptake of [3H]CQ (% PfNT1 control), trans-stimulation) was 99 ± 3.5%. The activity at 45000 µM (PfNT1; SEM, read-out: Uptake of [3H]CQ (% PfCRTDd2 control), trans-stimulation, PfNT1) was 2.6 ± 0.08%, the activity at 45000 µM (PfNT1; read-out: Uptake of [3H]CQ (% PfNT1 control), trans-stimulation) was 100 ± 2.6% and the activity at 5000 µM (PfNT1; [test solute]i = 5 mM (intracellular), mean ± SEM, SEM, read-out: Uptake of [3H]CQ (% PfCRTDd2 control), trans-stimulation, PfNT1) was 2.8 ± 0.05%. For the same compound, the activity at 5000 µM (PfCRT^3D7 [5]; PfCRT3D7 oocytes, [test solute]i = 5 mM, total [3H]CQ transport, normalised to the oocyte type control, read-out: Uptake of [3H]CQ (% PfCRT3D7 control), trans-stimulation) was 99 ± 4.2%, the “[3H]CQ transport (% PfCRT3D7 control), trans-stimulation, PfCRT3D7” value (PfCRT^3D7 [5]; SEM) was 0.3 ± 0.01 % PfCRT3D7 control and the activity at 5000 µM (PfCRT^3D7 [5]; [test solute]i = 5 mM (intracellular), PfCRT3D7 oocytes, normalised to oocyte type control, read-out: PfCRT-mediated [3H]CQ transport, trans-stimulation (% PfCRT3D7 control)) was 97 ± 2.9%. It also gave an activity at 45000 µM (PfCRT^3D7 [5]; SEM, read-out: Uptake of [3H]CQ (% PfCRTDd2 control), trans-stimulation, PfCRT3D7) of 3.3 ± 0.02%, an activity at 45000 µM (PfCRT^3D7 [5]; read-out: PfCRT-mediated [3H]CQ transport, trans-stimulation (% PfCRT3D7 control)) of 96 ± 3.1% and an activity at 45000 µM (PfCRT^3D7 [5]; read-out: Uptake of [3H]CQ (% PfCRT3D7 control), trans-stimulation) of 98 ± 2.8%. For the same compound, the activity at 5000 µM (PfCRT^3D7 [5]; total [3H]CQ transport, [test solute]i = 5 mM (intracellular), mean ± SEM, SEM, read-out: Uptake of [3H]CQ (% PfCRTDd2 control), trans-stimulation, PfCRT3D7) was 3.3 ± 0.1%, the activity at 5000 µM (PfCRT^Dd2 [6]; pH 5.5, read-out: PfCRT-mediated [3H]CQ transport, trans-stimulation (% PfCRTDd2 control), [test solute]i = 5 mM (intracellular), PfCRTDd2 oocytes, normalised to oocyte type control) was 96 ± 3.2% and the activity at 5000 µM (PfCRT^Dd2 [6]; pH 5.5, read-out: Uptake of [3H]CQ (% PfCRTDd2 control), trans-stimulation, PfCRTDd2, total [3H]CQ transport, [test solute]i = 5 mM (intracellular), mean ± SEM, SEM) was 98 ± 3.2%. The activity at 5000 µM (PfCRT^Dd2 [6]; pH 5.5, read-out: Uptake of [3H]CQ (% PfCRTDd2 control), trans-stimulation, PfCRTDd2 oocytes, [test solute]i = 5 mM, total [3H]CQ transport, normalised to the oocyte type control) was 98 ± 3.2%, the activity at 45000 µM (PfCRT^Dd2 [6]; pH 5.5, read-out: Uptake of [3H]CQ (% PfCRTDd2 control), trans-stimulation, PfCRTDd2 oocytes, total [3H]CQ transport, normalised to the oocyte type control) was 99 ± 3.2% and the activity at 5000 µM (PfCRT^Dd2 [6]; pH 5.5, read-out: [3H]CQ transport (% PfCRTDd2 control), trans-stimulation, PfCRTDd2, trans-stimulation, [test solute]i = 5 mM (injected), PfCRT-mediated component (background subtracted), mean ± SEM, SEM) was 96 ± 3.2%. The activity at 45000 µM (PfCRT^Dd2 [6]; pH 5.5, read-out: [3H]CQ transport (% PfCRTDd2 control), trans-stimulation, PfCRTDd2, trans-stimulation, PfCRT-mediated component (background subtracted), mean ± SEM, SEM) was 97 ± 3.9%, the inhibition at 500 µM (PfCRT^3D7 [7]; [17]) was 100 ± 4.7% and the inhibition at 1000 µM (PfCRT^3D7 [7]; [17]) was 100 ± 5.3%. It also gave an inhibition at 2000 µM (PfCRT^3D7 [7]; [17]) of 99 ± 5.3%, an inhibition at 500 µM (PfCRT^3D7 [7]; [18]) of 2.9 ± 0.03% and an inhibition at 1000 µM (PfCRT^3D7 [7]; [18]) of 2.8 ± 0.07%. For the same compound, the inhibition at 2000 µM (PfCRT^3D7 [7]; [18]) was 3.3 ± 0.03%, the inhibition at 500 µM (non-expressing oocytes [8]; [19]) was 2.2 ± 0.04% and the inhibition at 1000 µM (non-expressing oocytes [8]; [19]) was 3.8 ± 0.08%. It also gave an inhibition at 2000 µM (non-expressing oocytes [8]; [19]) of 2.8 ± 0.02%, an inhibition at 500 µM (non-expressing oocytes [8]; [20]) of 95 ± 5.4% and an inhibition at 1000 µM (non-expressing oocytes [8]; [20]) of 98 ± 3.6%. For the same compound, the inhibition at 2000 µM (non-expressing oocytes [8]; [20]) was 100 ± 3.6%, the “Uptake of [3H]CQ (% non-expressing oocyte control), trans-stimulation” value (non-expressing oocytes [9]; [test solute]i = 5 mM) was 101 ± 3.2 % non-expressing oocyte control and the “Uptake of [3H]CQ (% non-expressing oocyte control), trans-stimulation” value (non-expressing oocytes [9]; [test solute]i = 45 mM (30 mM for some solutes due to solubility)) was 99 ± 2.4 % non-expressing oocyte control. The “Uptake of [3H]CQ (% PfCRTDd2 control), trans-stimulation, non-expressing oocytes” value (non-expressing oocytes [9]; [test solute]i = 5 mM (intracellular)) was 2.4 ± 0.08 % PfCRTDd2 control, the “Uptake of [3H]CQ (% PfCRTDd2 control), trans-stimulation, non-expressing oocytes” value (non-expressing oocytes [9]; [test solute]i = 45 mM (intracellular; 30 mM for some solutes due to solubility)) was 2.8 ± 0.02 % PfCRTDd2 control and the “Tested as potential co-substrate but not required for influx of VF-6 via PfCRT into the oocyte” value (PfCRT [10]) was “X”.
